Reference: patent publication US11702422B2, “Imidazopyridazines as modulators of IL-17” (Janssen Pharmaceutica NV, priority 2020, dated 2023)

How the values were obtained:
[1] = target: IL-17A(FLAG-Tagged): IL-17RA(His-Tagged) (Homo sapiens, UniProt Q16552, K93Q); assay: IL-17A(FLAG-Tagged): IL-17RA(His-Tagged) Binding Disruption Eu-HTRF Assay; conditions: IL-17A/IL-17RA binding disruption, simple average if tested more than once
Summary of the method: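 IC50 comes from a one-site competition fit of the HTRF 665/620 nm ratio. Compound dilutions (2-fold, 22 points) were held 1 h rt with FLAG-tagged IL-17A dimer, then His-tagged IL-17RA plus Eu-cryptate anti-FLAG and D2 anti-His antibodies were added for 2 h rt.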

[2] = tested on: IL-17A-induced G-CSF production in human normal keratinocyte (NHK); assay: NHK Assay: IL-17A-induced G-CSF production in human normal keratinocytes; format: cell-based; conditions: Homo sapiens, Keratinocyte, 24 h, adult normal human keratinocytes, IL-17A 5 ng/mL, simple average if tested more than once
Summary of the method: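 G-CSF released by primary adult human keratinocytes after 24 h at 37° C was quantified by HTRF via standard curve to give IC50. Stimulus was 5 ng/mL IL-17A pre-mixed 1 h at rt with compound dilutions, in 5% FBS and 0.2% DMSO. Cell viability was assessed in parallel with CellTiter-Glo.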

Chain of UniProt Q16552 (Q16552 with tags, fused parts or gaps K93Q): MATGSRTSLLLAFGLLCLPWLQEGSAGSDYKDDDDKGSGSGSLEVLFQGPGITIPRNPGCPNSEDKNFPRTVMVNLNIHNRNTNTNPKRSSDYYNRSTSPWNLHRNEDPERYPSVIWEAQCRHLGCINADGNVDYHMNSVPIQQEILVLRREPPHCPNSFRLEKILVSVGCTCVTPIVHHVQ

Compound | IC50 [1] | IC50 [2]
O=C(CCC(F)(F)F)N[C@@H](c1cnn2cc([C@@H](NC(=O)c3cccc(C(F)F)c3)C3CCC(F)(F)CC3)nc2c1)C1CC1 [Example 170, N—((S)-(7-((R)-Cyclopropyl(4,4,4-trifluorobutanamido)methyl)imidazo[1,2-b]pyridazin-2-yl)(4,4-difluorocyclohexyl)methyl)-3-(difluoromethyl)benzamide] | 41 nM | 220 nM
O=C(CCC(F)(F)F)N[C@@H](c1cnn2cc([C@@H](NC(=O)c3ccnc(OCC(F)(F)F)c3)C3CCC(F)(F)CC3)nc2c1)C1CC1 [Example 171, N—((S)-(7-((R)-Cyclopropyl(4,4,4-trifluorobutanamido)methyl)imidazo[1,2-b]pyridazin-2-yl)(4,4-difluorocyclohexyl)methyl)-2-(2,2,2-trifluoroethoxy)isonicotinamide] | 48 nM | 320 nM
O=C(CCC(F)(F)F)N[C@@H](c1cnn2cc([C@@H](NC(=O)c3ccnc(OC4CC4)c3)C3CCC(F)(F)CC3)nc2c1)C1CC1 [Example 172, 2-Cyclopropoxy-N—((S)-(7-((R)-cyclopropyl(4,4,4-trifluorobutanamido)methyl)imidazo[1,2-b]pyridazin-2-yl)(4,4-difluorocyclohexyl)methyl)isonicotinamide] | 44 nM | 320 nM
O=C(CCC(F)(F)F)N[C@@H](c1cnn2cc([C@@H](NC(=O)c3cccc(F)c3)C3CCC(F)(F)CC3)nc2c1)C1CC1 [Example 173, N—((S)-(7-((R)-Cyclopropyl(4,4,4-trifluorobutanamido)methyl)imidazo[1,2-b]pyridazin-2-yl)(4,4-difluorocyclohexyl)methyl)-3-fluorobenzamide] | 60 nM | 340 nM
O=C(CCC(F)(F)F)N[C@@H](c1cnn2cc([C@@H](NC(=O)c3cccc(OCC(F)(F)F)c3)C3CCC(F)(F)CC3)nc2c1)C1CC1 [Example 174, N—((S)-(7-((R)-Cyclopropyl(4,4,4-trifluorobutanamido)methyl)imidazo[1,2-b]pyridazin-2-yl)(4,4-difluorocyclohexyl)methyl)-3-(2,2,2-trifluoroethoxy)benzamide] | 80 nM | 390 nM
CC(C)Oc1cc(C(=O)N[C@H](c2cn3ncc([C@H](NC(=O)CCC(F)(F)F)C4CC4)cc3n2)C2CCC(F)(F)CC2)ccn1 [Example 175, N—((S)-(7-((R)-Cyclopropyl(4,4,4-trifluorobutanamido)methyl)imidazo[1,2-b]pyridazin-2-yl)(4,4-difluorocyclohexyl)methyl)-2-isopropoxyisonicotinamide] | 80 nM | 400 nM
O=C(CCC(F)(F)F)N[C@@H](c1cnn2cc([C@@H](NC(=O)c3cncc(N4CCCC4=O)c3)C3CCC(F)(F)CC3)nc2c1)C1CC1 [Example 176, N—((S)-(7-((R)-Cyclopropyl(4,4,4-trifluorobutanamido)methyl)imidazo[1,2-b]pyridazin-2-yl)(4,4-difluorocyclohexyl)methyl)-5-(2-oxopyrrolidin-1-yl)nicotinamide] | 110 nM | 420 nM
CCOc1cc(C(=O)N[C@H](c2cn3ncc([C@H](NC(=O)CCC(F)(F)F)C4CC4)cc3n2)C2CCC(F)(F)CC2)ccn1 [Example 177, N—((S)-(7-((R)-Cyclopropyl(4,4,4-trifluorobutanamido)methyl)imidazo[1,2-b]pyridazin-2-yl)(4,4-difluorocyclohexyl)methyl)-2-ethoxyisonicotinamide] | 53 nM | 440 nM
O=C(CCC(F)(F)F)N[C@@H](c1cnn2cc([C@@H](NC(=O)c3cncc(C(F)(F)F)c3)C3CCC(F)(F)CC3)nc2c1)C1CC1 [Example 178, N—((S)-(7-((R)-Cyclopropyl(4,4,4-trifluorobutanamido)methyl)imidazo[1,2-b]pyridazin-2-yl)(4,4-difluorocyclohexyl)methyl)-5-(trifluoromethyl)nicotinamide] | 67 nM | 450 nM
O=C(CCC(F)(F)F)N[C@@H](c1cnn2cc([C@@H](NC(=O)c3ccnc(OCC(F)F)c3)C3CCC(F)(F)CC3)nc2c1)C1CC1 [Example 179, N—((S)-(7-((R)-Cyclopropyl(4,4,4-trifluorobutanamido)methyl)imidazo[1,2-b]pyridazin-2-yl)(4,4-difluorocyclohexyl)methyl)-2-(2,2-difluoroethoxy)isonicotinamide] | 45 nM | 450 nM
O=C(CCC(F)(F)F)N[C@@H](c1cnn2cc([C@@H](NC(=O)c3cccc(OCC4CC4)c3)C3CCC(F)(F)CC3)nc2c1)C1CC1 [Example 180, N—((S)-(7-((R)-Cyclopropyl(4,4,4-trifluorobutanamido)methyl)imidazo[1,2-b]pyridazin-2-yl)(4,4-difluorocyclohexyl)methyl)-3-(cyclopropylmethoxy)benzamide] | 130 nM | 450 nM
O=C(CCC(F)(F)F)N[C@@H](c1cnn2cc([C@@H](NC(=O)c3ccnc(OC4CCC4)c3)C3CCC(F)(F)CC3)nc2c1)C1CC1 [Example 181, 2-Cyclobutoxy-N—((S)-(7-((R)-cyclopropyl(4,4,4-trifluorobutanamido)methyl)imidazo[1,2-b]pyridazin-2-yl)(4,4-difluorocyclohexyl)methyl)isonicotinamide] | 80 nM | 460 nM
O=C(CCC(F)(F)F)N[C@@H](c1cnn2cc([C@@H](NC(=O)c3ccc(F)cc3)C3CCC(F)(F)CC3)nc2c1)C1CC1 [Example 182, N—((S)-(7-((R)-Cyclopropyl(4,4,4-trifluorobutanamido)methyl)imidazo[1,2-b]pyridazin-2-yl)(4,4-difluorocyclohexyl)methyl)-4-fluorobenzamide] | 85 nM | 510 nM
O=C(CCC(F)(F)F)N[C@@H](c1cnn2cc([C@@H](NC(=O)c3cncc(OCC(F)F)c3)C3CCC(F)(F)CC3)nc2c1)C1CC1 [Example 183, N—((S)-(7-((R)-Cyclopropyl(4,4,4-trifluorobutanamido)methyl)imidazo[1,2-b]pyridazin-2-yl)(4,4-difluorocyclohexyl)methyl)-5-(2,2-difluoroethoxy)nicotinamide] | 69 nM | 520 nM
COc1cc(C(=O)N[C@H](c2cn3ncc([C@H](NC(=O)CCC(F)(F)F)C4CC4)cc3n2)C2CCC(F)(F)CC2)ccn1 [Example 184, N—((S)-(7-((R)-Cyclopropyl(4,4,4-trifluorobutanamido)methyl)imidazo[1,2-b]pyridazin-2-yl)(4,4-difluorocyclohexyl)methyl)-2-methoxyisonicotinamide] | 110 nM | 590 nM
CC(C)Oc1cncc(C(=O)N[C@H](c2cn3ncc([C@H](NC(=O)CCC(F)(F)F)C4CC4)cc3n2)C2CCC(F)(F)CC2)c1 [Example 185, N—((S)-(7-((R)-Cyclopropyl(4,4,4-trifluorobutanamido)methyl)imidazo[1,2-b]pyridazin-2-yl)(4,4-difluorocyclohexyl)methyl)-5-isopropoxynicotinamide] | 45 nM | 690 nM
O=C(CCC(F)(F)F)N[C@@H](c1cnn2cc([C@@H](NC(=O)c3ccnc(OC(F)F)c3)C3CCC(F)(F)CC3)nc2c1)C1CC1 [Example 186, N—((S)-(7-((R)-Cyclopropyl(4,4,4-trifluorobutanamido)methyl)imidazo[1,2-b]pyridazin-2-yl)(4,4-difluorocyclohexyl)methyl)-2-(difluoromethoxy)isonicotinamide] | 110 nM | 720 nM
O=C(CCC(F)(F)F)N[C@@H](c1cnn2cc([C@@H](NC(=O)c3ccccc3C(F)F)C3CCC(F)(F)CC3)nc2c1)C1CC1 [Example 187, N—((S)-(7-((R)-Cyclopropyl(4,4,4-trifluorobutanamido)methyl)imidazo[1,2-b]pyridazin-2-yl)(4,4-difluorocyclohexyl)methyl)-2-(difluoromethyl)benzamide] | 260 nM | 730 nM
N#Cc1cccc(C(=O)N[C@H](c2cn3ncc([C@H](NC(=O)CCC(F)(F)F)C4CC4)cc3n2)C2CCC(F)(F)CC2)c1 [Example 188, 3-Cyano-N—((S)-(7-((R)-cyclopropyl(4,4,4-trifluorobutanamido)methyl)imidazo[1,2-b]pyridazin-2-yl)(4,4-difluorocyclohexyl)methyl)benzamide] | 150 nM | 750 nM
COc1cncc(C(=O)N[C@H](c2cn3ncc([C@H](NC(=O)CCC(F)(F)F)C4CC4)cc3n2)C2CCC(F)(F)CC2)c1 [Example 189, N—((S)-(7-((R)-Cyclopropyl(4,4,4-trifluorobutanamido)methyl)imidazo[1,2-b]pyridazin-2-yl)(4,4-difluorocyclohexyl)methyl)-5-methoxynicotinamide] | 230 nM | 810 nM
O=C(CCC(F)(F)F)N[C@@H](c1cnn2cc([C@@H](NC(=O)c3ccncc3)C3CCC(F)(F)CC3)nc2c1)C1CC1 [Example 190, N—((S)-(7-((R)-Cyclopropyl(4,4,4-trifluorobutanamido)methyl)imidazo[1,2-b]pyridazin-2-yl)(4,4-difluorocyclohexyl)methyl)isonicotinamide] | 220 nM | 820 nM
O=C(CCC(F)(F)F)N[C@@H](c1cnn2cc([C@@H](NC(=O)c3ccnc4c3CCC4)C3CCC(F)(F)CC3)nc2c1)C1CC1 [Example 191, N—((S)-(7-((R)-Cyclopropyl(4,4,4-trifluorobutanamido)methyl)imidazo[1,2-b]pyridazin-2-yl)(4,4-difluorocyclohexyl)methyl)-6,7-dihydro-5H-cyclopenta[b]pyridine-4-carboxamide] | 290 nM | 1100 nM
